Holding throughout (type): functional, organism-based
Assay [1] relates to Human alphaherpesvirus 1. Briefly: The compound was tested for plaque inhibition in HSV-1 in cell culture; - = in active at 50 ug per disk.
Assay [2] deals with Human alphaherpesvirus 1. Put plainly: The compound was tested for plaque inhibition in HSV-1 in cell culture, activity is determined by plaque reduction assay. Background: In a plaque reduction assay, fewer plaques than in the control indicate reduced infectivity or spread.
For assay [3], the system named is Human alphaherpesvirus 1. Put plainly: The compound was tested for plaque inhibition in HSV-1 in cell culture; +=active at 50 ug per disk.

pIC50: −log10 of the molar value. Calls of active or inactive are those of the source. The rule behind the calls is not given here.

In the case of `NCCOCn1cnc2c(N)nc(N)nc21`, in the assay with Human alphaherpesvirus 1 [1], the Plaque inhibition result was “inactive”.

Take `Nc1nc(O)c2ncn(COCCNCCO)c2n1`: the Plaque inhibition result in the assay with Human alphaherpesvirus 1 [1] is “inactive”. Same read-out and setting: next, `CC(=O)NCCOCn1cnc2c(O)nc(N)nc21`: “inactive”; `NCCOCCOCn1cnc2c(O)nc(N)nc21`: “inactive”.

For orientation: pIC50 means the IC50 on a negative log10 scale, so that one unit is a factor of ten. Low readings indicate a high IC50, high ones a low IC50. Regarding `Nc1nc2c(ncn2COCCO)c(=O)[nH]1` [ACYCLOVIR], the pIC50 in the assay with Human alphaherpesvirus 1 [2] was 7.00. In the assay with Human alphaherpesvirus 1 [3], the Plaque inhibition result is “active at 50 ug per disk”. For `NCCOCn1cnc2c(O)nc(N)nc21`, in that order: 5.10 and “active at 50 ug per disk”.

Values taken from ChEMBL document CHEMBL1121912, “Purine acyclic nucleosides. Nitrogen isosteres of 9-[(2-hydroxyethoxy)methyl]guanine as candidate antivirals” (J Med Chem, 1981).
